In brackets after ≈: the same amount, converted by molar mass.

The nature of data set [1]: Water solubility by slurry equilibration and HPLC. It counts as physicochemical. Particulars: pH 7, aqueous buffer, thermodynamic from solid. The procedure:
Water Solubility of the Co-Crystals
The determination of the amount of the actives in solution was performed on HPLC ACQUITY (Water) system, equipped with PDA—230 nm UV detector and Sample Manager auto-injector.
Waters' Enpower software was used to record the chromatograms and to calculate the chromatographic parameters. Gradient elution (Acetonitrile—0.1% H3PO4) was achieved using C18 column, 50×2.1 mm, 1.7 μm BEH. Injection volume was set 1 μL by auto injector. The analysis were performed with rate flux of 0.4 ml/min. UV detection was performed at 245 nm. Peak identities were confirmed by spectrum and retention time comparison. All the analyses were performed at room temperature. All the analyzed solutions were prepared by slurry equilibration experiments. Particularly, water suspensions (KH2PO4/NaOH buffer having pH value of 7) of dithiine, pyrimethanil and the co-crystals were slurried for 1 hour, according with the maximum value of the intrinsic dissolution profile of the pure active. After 60 minutes small samples of about 1.0 ml were recovered with a syringe and filtered through a 0.1 micrometer PVDF Millipore filtration unit. Both solid phase and liquid phase were analyzed by XRPD and HPLC, respectively.

Data set [2] is described as follows: Isothermal TGA volatility study. Type of data set: physicochemical. Particulars: isothermal TGA at 100 C., nitrogen flow, weight loss monitored for 12 hours. The procedure:
Isothermal Analysis of the Co-Crystals
TG/DTA measurement was carried out on a Seiko TG/DTA 7200 instrument. An open aluminium pan was used and the measurement was carried out under nitrogen flow with a sample weight of 5 to 10 mg. The isothermal TGA for volatility studies were performed at 100 C. and the weight loss was monitored for 12 hours.

For `Cn1c(=O)c2sc3c(=O)n(C)c(=O)c3sc2c1=O`, the solubility – broadly, how much of the substance goes into solution per volume – at 1 h in data set [1] was 2 µg/mL (≈ 7.08 µM). Further, the “TGA Volatility (% weight loss per minute)” value in data set [2] was 5.45 × 10^−3 % weight loss per minute.
On the same counts, the results for `Cc1cc(C)nc(Nc2ccccc2)n1` [pyrimethanil] are 58 µg/mL (≈ 291 µM) and 1.20 × 10^−2 % weight loss per minute.
